Measurements as given in the NIST ThermoML archive (doi:10.1016/j.jct.2016.02.013).
Numbers after ± are expanded uncertainties.

How the values were obtained:
[1] = for surface tension liquid-gas: Pendant drop shape; for electrical conductivity / viscosity / mass density: 101.33 kPa; for surface tension liquid-gas / electrical conductivity / viscosity / mass density: Liquid; for electrical conductivity: Alternating current cell with electrodes; for viscosity: Concentric cylinders viscometry; for mass density: Vibrating tube method
[2] = refractive index (Na D-line) (dimensionless); settings: 101.33 kPa, Liquid, Standard Abbe refractometry

Q: What does the source list for `CCCC[N+](CCCC)(CCCC)CCCC.O=S(=O)([O-])C(F)(F)C(F)(F)C(F)(F)C(F)(F)C(F)(F)C(F)(F)C(F)(F)C(F)(F)F` [tetrabutylammonium heptadecafluorooctanesulfonate]?
A: surface tension liquid-gas ([1]; 298.4 K): 21.98 ± 0.34 mN/m; surface tension liquid-gas ([1]; 303.2 K): 21.6 ± 0.34 mN/m; surface tension liquid-gas ([1]; 313.3 K): 21.11 ± 0.33 mN/m; surface tension liquid-gas ([1]; 323.2 K): 20.65 ± 0.33 mN/m; surface tension liquid-gas ([1]; 333.2 K): 20.14 ± 0.32 mN/m; surface tension liquid-gas ([1]; 343 K): 19.55 ± 0.31 mN/m

Q: Which results are given for `CCCC[N+](CCCC)(CCCC)CCCC.O=S(=O)([O-])C(F)(F)C(F)(F)C(F)(F)C(F)(F)F` [tetrabutylammonium perfluorobutanesulfonate]?
A: surface tension liquid-gas ([1]; 333.1 K): 22.77 ± 0.35 mN/m; surface tension liquid-gas ([1]; 338 K): 22.57 ± 0.35 mN/m; surface tension liquid-gas ([1]; 343.1 K): 22.36 ± 0.35 mN/m; surface tension liquid-gas ([1]; 348.3 K): 22.2 ± 0.34 mN/m; surface tension liquid-gas ([1]; 353.4 K): 21.95 ± 0.34 mN/m

Q: With `CC[n+]1cccc(C)c1.O=S(=O)([O-])C(F)(F)C(F)(F)C(F)(F)C(F)(F)F` [1-ethyl-3-methylpyridinium perfluorobutanesulfonate] as the compound, how does the surface tension liquid-gas ([1]; 298.3 K) read?
A: Its surface tension liquid-gas is 26.35 ± 0.32 mN/m.

Q: And the surface tension liquid-gas ([1]; 303.4 K)?
A: The surface tension liquid-gas was 26.16 ± 0.32 mN/m.

Q: And the surface tension liquid-gas ([1]; 313.4 K)?
A: The surface tension liquid-gas was 25.77 ± 0.31 mN/m.

Q: And the surface tension liquid-gas ([1]; 323.6 K)?
A: Its surface tension liquid-gas is 25.39 ± 0.31 mN/m.

Q: And the surface tension liquid-gas ([1]; 332.9 K)?
A: The surface tension liquid-gas was 25.12 ± 0.31 mN/m.

Q: And the surface tension liquid-gas ([1]; 343 K)?
A: Its surface tension liquid-gas is 24.7 ± 0.3 mN/m.

Q: For `CC[n+]1cccc(C)c1.O=C([O-])C(F)(F)C(F)(F)C(F)(F)C(F)(F)F` [1-ethyl-3-methylpyridinium perfluoropentanoate], which electrical conductivity ([1]; 293.15 K) is on record?
A: Its electrical conductivity is 0.0915 ± 0.0015 S/m.

Q: What about the viscosity ([1]; 293.15 K) of the same compound?
A: The viscosity was 196 ± 5.2 mPa·s.

Q: And the mass density ([1]; 293.15 K)?
A: The mass density was 1458.7 ± 1.6 kg/m3.

Q: What about the electrical conductivity ([1]; 298.15 K) of the same compound?
A: Its electrical conductivity is 0.12 ± 0.002 S/m.

Q: And the viscosity ([1]; 298.15 K)?
A: The viscosity was 147.1 ± 3.6 mPa·s.

Q: And the mass density ([1]; 298.15 K)?
A: The mass density was 1453.6 ± 1.6 kg/m3.

Q: What about the surface tension liquid-gas ([1]; 298.3 K) of the same compound?
A: The surface tension liquid-gas was 26.83 ± 0.32 mN/m.

Q: And the electrical conductivity ([1]; 303.15 K)?
A: The electrical conductivity was 0.155 ± 0.002 S/m.

Q: And the viscosity ([1]; 303.15 K)?
A: The viscosity was 110.8 ± 2.5 mPa·s.

Q: And the mass density ([1]; 303.15 K)?
A: The mass density was 1448.6 ± 1.6 kg/m3.

Q: What about the electrical conductivity ([1]; 308.15 K) of the same compound?
A: The electrical conductivity was 0.194 ± 0.003 S/m.

Q: What about the viscosity ([1]; 308.15 K) of the same compound?
A: The viscosity was 85.39 ± 1.9 mPa·s.

Q: And the mass density ([1]; 308.15 K)?
A: Its mass density is 1443.6 ± 1.6 kg/m3.

Q: And the surface tension liquid-gas ([1]; 308.2 K)?
A: The surface tension liquid-gas was 26.49 ± 0.32 mN/m.

Q: What about the electrical conductivity ([1]; 313.15 K) of the same compound?
A: The electrical conductivity was 0.239 ± 0.003 S/m.

Q: And the viscosity ([1]; 313.15 K)?
A: The viscosity was 67.81 ± 1.4 mPa·s.

Q: And the mass density ([1]; 313.15 K)?
A: Its mass density is 1438.7 ± 1.5 kg/m3.

Q: What about the surface tension liquid-gas ([1]; 317.9 K) of the same compound?
A: The surface tension liquid-gas was 26.07 ± 0.31 mN/m.

Q: And the electrical conductivity ([1]; 318.15 K)?
A: Its electrical conductivity is 0.289 ± 0.004 S/m.

Q: And the viscosity ([1]; 318.15 K)?
A: The viscosity was 53.67 ± 1.1 mPa·s.

Q: And the mass density ([1]; 318.15 K)?
A: Its mass density is 1433.7 ± 1.5 kg/m3.

Q: And the electrical conductivity ([1]; 323.15 K)?
A: The electrical conductivity was 0.355 ± 0.004 S/m.

Q: What about the viscosity ([1]; 323.15 K) of the same compound?
A: Its viscosity is 43.6 ± 0.91 mPa·s.

Q: What about the mass density ([1]; 323.15 K) of the same compound?
A: Its mass density is 1428.9 ± 1.5 kg/m3.

Q: What about the surface tension liquid-gas ([1]; 328 K) of the same compound?
A: Its surface tension liquid-gas is 25.71 ± 0.31 mN/m.

Q: And the viscosity ([1]; 328.15 K)?
A: Its viscosity is 35.94 ± 0.75 mPa·s.

Q: What about the mass density ([1]; 328.15 K) of the same compound?
A: Its mass density is 1424 ± 1.5 kg/m3.

Q: What about the viscosity ([1]; 333.15 K) of the same compound?
A: Its viscosity is 30.35 ± 0.63 mPa·s.

Q: What about the mass density ([1]; 333.15 K) of the same compound?
A: The mass density was 1419.2 ± 1.5 kg/m3.

Q: What about the surface tension liquid-gas ([1]; 338 K) of the same compound?
A: Its surface tension liquid-gas is 25.31 ± 0.31 mN/m.

Q: And the viscosity ([1]; 338.15 K)?
A: The viscosity was 25.32 ± 0.53 mPa·s.

Q: What about the mass density ([1]; 338.15 K) of the same compound?
A: Its mass density is 1414.3 ± 1.5 kg/m3.

Q: What about the viscosity ([1]; 343.15 K) of the same compound?
A: The viscosity was 21.61 ± 0.45 mPa·s.

Q: What about the mass density ([1]; 343.15 K) of the same compound?
A: Its mass density is 1409.4 ± 1.5 kg/m3.

Q: And the surface tension liquid-gas ([1]; 347 K)?
A: Its surface tension liquid-gas is 24.94 ± 0.31 mN/m.

Q: What about the viscosity ([1]; 348.15 K) of the same compound?
A: Its viscosity is 18.61 ± 0.39 mPa·s.

Q: And the mass density ([1]; 348.15 K)?
A: Its mass density is 1404.5 ± 1.5 kg/m3.

Q: And the viscosity ([1]; 353.15 K)?
A: Its viscosity is 16.39 ± 0.34 mPa·s.

Q: What about the mass density ([1]; 353.15 K) of the same compound?
A: The mass density was 1399.5 ± 1.5 kg/m3.

Q: What about the Normal melting temperature ([1]; Crystal, DTA) of the same compound?
A: The Normal melting temperature was 2 ± 4 °C.

Q: And the refractive index ([2]; 293.15 K)?
A: The refractive index was 1.42282 ± 0.00037.

Q: And the refractive index ([2]; 298.15 K)?
A: The refractive index was 1.42137 ± 0.00037.

Q: And the refractive index ([2]; 303.15 K)?
A: The refractive index was 1.4199 ± 0.00037.

Q: And the refractive index ([2]; 308.15 K)?
A: Its refractive index is 1.41844 ± 0.00037.

Q: And the refractive index ([2]; 313.15 K)?
A: Its refractive index is 1.41697 ± 0.00037.

Q: And the refractive index ([2]; 318.15 K)?
A: The refractive index was 1.41553 ± 0.00037.

Q: And the refractive index ([2]; 323.15 K)?
A: Its refractive index is 1.41406 ± 0.00037.

Q: What about the refractive index ([2]; 328.15 K) of the same compound?
A: Its refractive index is 1.4126 ± 0.00037.

Q: And the refractive index ([2]; 333.15 K)?
A: Its refractive index is 1.41114 ± 0.00037.

Q: What about the refractive index ([2]; 338.15 K) of the same compound?
A: The refractive index was 1.40955 ± 0.00037.

Q: And the refractive index ([2]; 343.15 K)?
A: Its refractive index is 1.40811 ± 0.00037.

Q: And the refractive index ([2]; 348.15 K)?
A: The refractive index was 1.40672 ± 0.00037.

Q: What about the refractive index ([2]; 353.15 K) of the same compound?
A: The refractive index was 1.40531 ± 0.00037.
